According to patent US10947271B2, “Antibacterial agents” (THE UNIVERSITY OF QUEENSLAND, priority 2014, dated 2021):

Assays:
Type in all cases: cell-based
Settings in all cases: 24 h incubation, visual reading
[1] = system: Enterococcus faecium MDR Van A ATCC 51559; assay: MIC assay, E. faecium MDR Van A ATCC 51559
Summary of the method: (§1)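 Mid-log cultures in MHB were added at 5×10e5 CFU/mL to compounds diluted twofold from 8 to 0.003 μg/ml. Visual inspection after 24 h incubation at 37° C. gave the MIC, the lowest concentration without visible growth.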

[2] = system: Staphylococcus aureus MRSA ATCC 43300; assay: MIC assay, S. aureus MRSA ATCC 43300
Summary of the method: as §1

[3] = system: Streptococcus pneumoniae MDR ATCC 700677; assay: MIC assay, S. pneumoniae MDR ATCC 700677
Summary of the method: as §1

## CCCCCCCOc1ccc(C(=O)NC(CCCCN)C(=O)NC(CCCCN)C(=O)NC(CCCCNC(=O)C2NC(=O)C3NC(=O)C(NC(=O)C4NC(=O)C(CC(N)=O)NC(=O)C(NC(=O)C(CC(C)C)NC)C(O)c5ccc(c(Cl)c5)Oc5cc4cc(c5OC4OC(CO)C(O)C(O)C4OC4CC(C)(N)C(O)C(C)O4)Oc4ccc(cc4Cl)C3O)c3ccc(O)c(c3)-c3c(O)cc(O)cc32)C(=O)NC)cc1 (stereo not drawn) [MCC_000503]
[1]
  Minimum Inhibitory Concentration (MIC) E. faecium ATCC51559: xx (xx = 1-4)
[2]
  Minimum Inhibitory Concentration (MIC) Staph. aureus ATCC43300: xxxxx (xxxxx = <0.01)
[3]
  Minimum Inhibitory Concentration (MIC) S. pneumoniae ATCC 700677: xxxxx (xxxxx = <0.01)

## CCCCCCCCCOc1ccc(C(=O)NC(CCCCN)C(=O)NC(CCCCN)C(=O)NC(CCCCNC(=O)C2NC(=O)C3NC(=O)C(NC(=O)C4NC(=O)C(CC(N)=O)NC(=O)C(NC(=O)C(CC(C)C)NC)C(O)c5ccc(c(Cl)c5)Oc5cc4cc(c5OC4OC(CO)C(O)C(O)C4OC4CC(C)(N)C(O)C(C)O4)Oc4ccc(cc4Cl)C3O)c3ccc(O)c(c3)-c3c(O)cc(O)cc32)C(=O)NC)cc1 (stereo not drawn) [MCC_000504]
[1]
  Minimum Inhibitory Concentration (MIC) E. faecium ATCC51559: xxx (xxx = 0.1-<1)
[2]
  Minimum Inhibitory Concentration (MIC) Staph. aureus ATCC43300: xxxxx (xxxxx = <0.01)
[3]
  Minimum Inhibitory Concentration (MIC) S. pneumoniae ATCC 700677: xxxxx (xxxxx = <0.01)

## CNC(=O)C(CCCCNC(=O)C1NC(=O)C2NC(=O)C(NC(=O)C3NC(=O)C(CC(N)=O)NC(=O)C(NC(=O)C(CC(C)C)NC)C(O)c4ccc(c(Cl)c4)Oc4cc3cc(c4OC3OC(CO)C(O)C(O)C3OC3CC(C)(N)C(O)C(C)O3)Oc3ccc(cc3Cl)C2O)c2ccc(O)c(c2)-c2c(O)cc(O)cc21)NC(=O)C(CCCCN)NC(=O)C(CCCCN)NC(=O)CCCOc1ccccc1 (stereo not drawn) [MCC_000505]
[1]
  Minimum Inhibitory Concentration (MIC) E. faecium ATCC51559: x (x = >4)
[2]
  Minimum Inhibitory Concentration (MIC) Staph. aureus ATCC43300: xxx (xxx = 0.1-<1)
[3]
  Minimum Inhibitory Concentration (MIC) S. pneumoniae ATCC 700677: xx (xx = 1-4)

## CNC(=O)C(CCCCNC(=O)C1NC(=O)C2NC(=O)C(NC(=O)C3NC(=O)C(CC(N)=O)NC(=O)C(NC(=O)C(CC(C)C)NC)C(O)c4ccc(c(Cl)c4)Oc4cc3cc(c4OC3OC(CO)C(O)C(O)C3OC3CC(C)(N)C(O)C(C)O3)Oc3ccc(cc3Cl)C2O)c2ccc(O)c(c2)-c2c(O)cc(O)cc21)NC(=O)C(CCCCN)NC(=O)C(CCCCNC(=O)CCCOc1ccccc1)NC(=O)CCCOc1ccccc1 (stereo not drawn) [MCC_000506]
[1]
  Minimum Inhibitory Concentration (MIC) E. faecium ATCC51559: x (x = >4)
[2]
  Minimum Inhibitory Concentration (MIC) Staph. aureus ATCC43300: xxx (xxx = 0.1-<1)
[3]
  Minimum Inhibitory Concentration (MIC) S. pneumoniae ATCC 700677: xxx (xxx = 0.1-<1)

## CNC(=O)C(CCCCNC(=O)C1NC(=O)C2NC(=O)C(NC(=O)C3NC(=O)C(CC(N)=O)NC(=O)C(NC(=O)C(CC(C)C)NC)C(O)c4ccc(c(Cl)c4)Oc4cc3cc(c4OC3OC(CO)C(O)C(O)C3OC3CC(C)(N)C(O)C(C)O3)Oc3ccc(cc3Cl)C2O)c2ccc(O)c(c2)-c2c(O)cc(O)cc21)NC(=O)C(CCCCN)NC(=O)C(CCCCN)NC(=O)CCCCCc1ccccc1 (stereo not drawn) [MCC_000507]
[1]
  Minimum Inhibitory Concentration (MIC) E. faecium ATCC51559: x (x = >4)
[2]
  Minimum Inhibitory Concentration (MIC) Staph. aureus ATCC43300: xxx (xxx = 0.1-<1)
[3]
  Minimum Inhibitory Concentration (MIC) S. pneumoniae ATCC 700677: xxx (xxx = 0.1-<1)

## CNC(=O)C(CCCCNC(=O)C1NC(=O)C2NC(=O)C(NC(=O)C3NC(=O)C(CC(N)=O)NC(=O)C(NC(=O)C(CC(C)C)NC)C(O)c4ccc(c(Cl)c4)Oc4cc3cc(c4OC3OC(CO)C(O)C(O)C3OC3CC(C)(N)C(O)C(C)O3)Oc3ccc(cc3Cl)C2O)c2ccc(O)c(c2)-c2c(O)cc(O)cc21)NC(=O)C(CCCCN)NC(=O)C(CCCCNC(=O)CCCCCc1ccccc1)NC(=O)CCCCCc1ccccc1 (stereo not drawn) [MCC_000508]
[1]
  Minimum Inhibitory Concentration (MIC) E. faecium ATCC51559: xx (xx = 1-4)
[2]
  Minimum Inhibitory Concentration (MIC) Staph. aureus ATCC43300: xxxxx (xxxxx = <0.01)
[3]
  Minimum Inhibitory Concentration (MIC) S. pneumoniae ATCC 700677: xxxxx (xxxxx = <0.01)

## CNC(=O)C(CCCCNC(=O)C1NC(=O)C2NC(=O)C(NC(=O)C3NC(=O)C(CC(N)=O)NC(=O)C(NC(=O)C(CC(C)C)NC)C(O)c4ccc(c(Cl)c4)Oc4cc3cc(c4OC3OC(CO)C(O)C(O)C3OC3CC(C)(N)C(O)C(C)O3)Oc3ccc(cc3Cl)C2O)c2ccc(O)c(c2)-c2c(O)cc(O)cc21)NC(=O)C(CCCCN)NC(=O)C(CCCCN)NC(=O)CCCCCCCCc1ccccc1 (stereo not drawn) [MCC_000509]
[1]
  Minimum Inhibitory Concentration (MIC) E. faecium ATCC51559: xx (xx = 1-4)
[2]
  Minimum Inhibitory Concentration (MIC) Staph. aureus ATCC43300: xxxx (xxxx = 0.01-<0.1)
[3]
  Minimum Inhibitory Concentration (MIC) S. pneumoniae ATCC 700677: xxxxx (xxxxx = <0.01)

## CNC(=O)C(CCCCNC(=O)C1NC(=O)C2NC(=O)C(NC(=O)C3NC(=O)C(CC(N)=O)NC(=O)C(NC(=O)C(CC(C)C)NC)C(O)c4ccc(c(Cl)c4)Oc4cc3cc(c4OC3OC(CO)C(O)C(O)C3OC3CC(C)(N)C(O)C(C)O3)Oc3ccc(cc3Cl)C2O)c2ccc(O)c(c2)-c2c(O)cc(O)cc21)NC(=O)C(CCCCN)NC(=O)C(CCCCN)NC(=O)CCCCCCCCCc1ccccc1 (stereo not drawn) [MCC_000510]
[1]
  Minimum Inhibitory Concentration (MIC) E. faecium ATCC51559: xx (xx = 1-4)
[2]
  Minimum Inhibitory Concentration (MIC) Staph. aureus ATCC43300: xxxx (xxxx = 0.01-<0.1)
[3]
  Minimum Inhibitory Concentration (MIC) S. pneumoniae ATCC 700677: xxxxxx

## CNC(=O)C(CCCCNC(=O)C1NC(=O)C2NC(=O)C(NC(=O)C3NC(=O)C(CC(N)=O)NC(=O)C(NC(=O)C(CC(C)C)NC)C(O)c4ccc(c(Cl)c4)Oc4cc3cc(c4OC3OC(CO)C(O)C(O)C3OC3CC(C)(N)C(O)C(C)O3)Oc3ccc(cc3Cl)C2O)c2ccc(O)c(c2)-c2c(O)cc(O)cc21)NC(=O)C(CCCCN)NC(=O)C(CCCCN)NC(=O)CCCCCCCCCCCc1ccccc1 (stereo not drawn) [MCC_000511]
[1]
  Minimum Inhibitory Concentration (MIC) E. faecium ATCC51559: xxx (xxx = 0.1-<1)
[2]
  Minimum Inhibitory Concentration (MIC) Staph. aureus ATCC43300: xxxxx (xxxxx = <0.01)
[3]
  Minimum Inhibitory Concentration (MIC) S. pneumoniae ATCC 700677: xxxxx (xxxxx = <0.01)

## CNC(=O)C(CCCCNC(=O)C1NC(=O)C2NC(=O)C(NC(=O)C3NC(=O)C(CC(N)=O)NC(=O)C(NC(=O)C(CC(C)C)NC)C(O)c4ccc(c(Cl)c4)Oc4cc3cc(c4OC3OC(CO)C(O)C(O)C3OC3CC(C)(N)C(O)C(C)O3)Oc3ccc(cc3Cl)C2O)c2ccc(O)c(c2)-c2c(O)cc(O)cc21)NC(=O)C(CCCCN)NC(=O)C(CCCCN)NC(=O)Cc1ccc(-c2ccccc2)cc1 (stereo not drawn) [MCC_000512]
[1]
  Minimum Inhibitory Concentration (MIC) E. faecium ATCC51559: x (x = >4)
[2]
  Minimum Inhibitory Concentration (MIC) Staph. aureus ATCC43300: xxx (xxx = 0.1-<1)
[3]
  Minimum Inhibitory Concentration (MIC) S. pneumoniae ATCC 700677: xxx (xxx = 0.1-<1)

## CNC(=O)C(CCCCNC(=O)C1NC(=O)C2NC(=O)C(NC(=O)C3NC(=O)C(CC(N)=O)NC(=O)C(NC(=O)C(CC(C)C)NC)C(O)c4ccc(c(Cl)c4)Oc4cc3cc(c4OC3OC(CO)C(O)C(O)C3OC3CC(C)(N)C(O)C(C)O3)Oc3ccc(cc3Cl)C2O)c2ccc(O)c(c2)-c2c(O)cc(O)cc21)NC(=O)C(CCCCN)NC(=O)C(CCCCN)NC(=O)c1ccc(Oc2ccc(F)cc2)cc1 (stereo not drawn) [MCC_000514]
[1]
  Minimum Inhibitory Concentration (MIC) E. faecium ATCC51559: x (x = >4)
[2]
  Minimum Inhibitory Concentration (MIC) Staph. aureus ATCC43300: xxx (xxx = 0.1-<1)
[3]
  Minimum Inhibitory Concentration (MIC) S. pneumoniae ATCC 700677: xxx (xxx = 0.1-<1)

## CNC(=O)C(CCCCNC(=O)C1NC(=O)C2NC(=O)C(NC(=O)C3NC(=O)C(CC(N)=O)NC(=O)C(NC(=O)C(CC(C)C)NC)C(O)c4ccc(c(Cl)c4)Oc4cc3cc(c4OC3OC(CO)C(O)C(O)C3OC3CC(C)(N)C(O)C(C)O3)Oc3ccc(cc3Cl)C2O)c2ccc(O)c(c2)-c2c(O)cc(O)cc21)NC(=O)C(CCCCN)NC(=O)C(CCCCN)NC(=O)c1ccc(Oc2ccc(Cl)cc2)cc1 (stereo not drawn) [MCC_000516]
[1]
  Minimum Inhibitory Concentration (MIC) E. faecium ATCC51559: x (x = >4)
[2]
  Minimum Inhibitory Concentration (MIC) Staph. aureus ATCC43300: xxxxxx
[3]
  Minimum Inhibitory Concentration (MIC) S. pneumoniae ATCC 700677: xxxxx (xxxxx = <0.01)

## CNC(=O)C(CCCCNC(=O)C1NC(=O)C2NC(=O)C(NC(=O)C3NC(=O)C(CC(N)=O)NC(=O)C(NC(=O)C(CC(C)C)NC)C(O)c4ccc(c(Cl)c4)Oc4cc3cc(c4OC3OC(CO)C(O)C(O)C3OC3CC(C)(N)C(O)C(C)O3)Oc3ccc(cc3Cl)C2O)c2ccc(O)c(c2)-c2c(O)cc(O)cc21)NC(=O)C(CCCCN)NC(=O)C(CCCCNC(=O)c1ccc(Oc2ccc(Cl)cc2)cc1)NC(=O)c1ccc(Oc2ccc(Cl)cc2)cc1 (stereo not drawn) [MCC_000517]
[1]
  Minimum Inhibitory Concentration (MIC) E. faecium ATCC51559: xxx (xxx = 0.1-<1)
[2]
  Minimum Inhibitory Concentration (MIC) Staph. aureus ATCC43300: xxxx (xxxx = 0.01-<0.1)
[3]
  Minimum Inhibitory Concentration (MIC) S. pneumoniae ATCC 700677: xxxxxx

## CNC(=O)C(CCCCNC(=O)C1NC(=O)C2NC(=O)C(NC(=O)C3NC(=O)C(CC(N)=O)NC(=O)C(NC(=O)C(CC(C)C)NC)C(O)c4ccc(c(Cl)c4)Oc4cc3cc(c4OC3OC(CO)C(O)C(O)C3OC3CC(C)(N)C(O)C(C)O3)Oc3ccc(cc3Cl)C2O)c2ccc(O)c(c2)-c2c(O)cc(O)cc21)NC(=O)C(CCCCN)NC(=O)C(CCCCN)NC(=O)c1ccc(OCc2ccccc2)cc1 (stereo not drawn) [MCC_000518]
[1]
  Minimum Inhibitory Concentration (MIC) E. faecium ATCC51559: x (x = >4)
[2]
  Minimum Inhibitory Concentration (MIC) Staph. aureus ATCC43300: xxx (xxx = 0.1-<1)
[3]
  Minimum Inhibitory Concentration (MIC) S. pneumoniae ATCC 700677: xxx (xxx = 0.1-<1)

## CNC(=O)C(CCCCNC(=O)C1NC(=O)C2NC(=O)C(NC(=O)C3NC(=O)C(CC(N)=O)NC(=O)C(NC(=O)C(CC(C)C)NC)C(O)c4ccc(c(Cl)c4)Oc4cc3cc(c4OC3OC(CO)C(O)C(O)C3OC3CC(C)(N)C(O)C(C)O3)Oc3ccc(cc3Cl)C2O)c2ccc(O)c(c2)-c2c(O)cc(O)cc21)NC(=O)C(CCCCN)NC(=O)C(CCCCNC(=O)c1ccc(OCc2ccccc2)cc1)NC(=O)c1ccc(OCc2ccccc2)cc1 (stereo not drawn) [MCC_000519]
[1]
  Minimum Inhibitory Concentration (MIC) E. faecium ATCC51559: xx (xx = 1-4)
[2]
  Minimum Inhibitory Concentration (MIC) Staph. aureus ATCC43300: xxxxx (xxxxx = <0.01)
[3]
  Minimum Inhibitory Concentration (MIC) S. pneumoniae ATCC 700677: xxxxx (xxxxx = <0.01)
